Measured values published in paper PMC8581430, “Peptide ligands targeting FGF receptors promote recovery from dorsal root crush injury via AKT/mTOR signaling” (Theranostics, 2021).

Assays:
[1] = system: FGFR (phosphorylated) in DRG explants; assay: Western blot of phosphorylated FGFR in ex vivo DRG explants; assay type: cell-based, Sprague-Dawley rat; settings: CH02 20 μM + BGJ398 2 μM, 4 h, n = 3
Experimental: Figure 5 Role of FGFR signaling in response to the CH02 peptide on promoting nerve regeneration. (A) Western blot analysis of phosphorylated FGFR expression in C5-T1 DRGs subjected to dorsal root crush injury, followed by CH02 treatment (20 μM). DRGs were collected after 3 days. Glyceraldehyde-3-phosphate dehydrogenase (GAPDH) antibodies were used as the loading control. (B) Western blot analysis of phosphorylated FGFR expression in ex vivo cultured DRG explants of adult Sprague-Dawley rats in response to CH02 treatment at different induction times. […] (D-F) Quantification of p-FGFR expression levels in panels A, B, and C. n = 3 independent experiments. Relative protein expression levels were quantified after normalization to FGFR2 or FGFR1. […] (H) Quantification of axon growth in DRG explants (G) using Neurite-J software (n = 5 for each condition; *control vs. CH02; #control vs. BGJ398; **p < 0.01, ***p < 0.001, ****p < 0.0001, #p < 0.05, ##p < 0.01 by two-way ANOVA with Dunnett's test; mean ± SEM). […] Images of random neurons were acquired by fluorescence microscopy. […] (J) Quantification of the longest axon length of each neuron randomly selected from (I) using Image-Pro Plus 6.0 software (n = 100 for each condition; *p < 0.05, **p < 0.01, ****p < 0.0001 by one-way ANOVA with Dunnett's; ns, not significant; mean ± SD). […]

[2] = system: mTOR (phosphorylated) in DRG explants; assay: Western blot of phosphorylated mTOR in DRG explants; assay type: cell-based, rat; settings: CH02 20 μM + inhibitor 2 μM, 4 h, n = 3
Experimental: Figure 7 CH02-stimulated activation of AKT/mTOR signaling is required for growth potential augmentation of axons. (A) Immunoblot analysis showing phosphorylated mTOR expression in C5-T1 DRGs subjected to dorsal root injury followed by CH02 treatment (20 μM). DRG samples were collected 3 days post-treatment. (B) Quantification of p-mTOR expression levels in A. n = 3 independent experiments. Relative protein expression levels were quantified after normalization to mTOR. Values are means ± SEM. (C) Immunoblot showing phosphorylated mTOR expression in DRG explants pretreated with DMSO (control), CH02 (20 μM), CH02+AKTi (2 μM) or CH02+ U0126 (2 μM) for 4 h. (D) Quantification of the p-mTOR expression from C. n = 3 independent experiments. Relative protein expression levels were quantified after normalization to mTOR. […] The axon is shown in fluorescence (β3-tubulin) images. […] (F) Quantification of the longest axon length of each neuron from (E) (n = 62 for each condition; *Control vs. CH02, CH02+Torin1, Torin1; # CH02 vs. CH02+Torin1; **p < 0.01, ****p < 0.0001, #p < 0.05 by one-way ANOVA with Dunnett's test; ns, not significant; mean ± SD). […] (H) Quantification of axon growth in DRG explants from (G) using Neurite-J software (n = 4 for each condition; *control vs. CH02, CH02+Torin1, Torin1; *p < 0.05, **p < 0.01, ***p < 0.001, ****p < 0.0001 by two-way ANOVA with Dunnett's test; mean ± SEM). […]

Compound | effect of inhibitor on CH02-upregulated phosphorylated FGFR [1] | effect of inhibitor on CH02-induced phosphorylated mTOR [2]
CCN1CCN(c2ccc(Nc3cc(N(C)C(=O)Nc4c(Cl)c(OC)cc(OC)c4Cl)ncn3)cc2)CC1 [BGJ398] | counteracted CH02 effects on upregulated phosphorylated FGFR levels | 
N#CC(=C(/N)Sc1ccccc1N)/C(C#N)=C(/N)Sc1ccccc1N [U0126] |  | had little effect
